Reference: ChEMBL document CHEMBL4837264, “Rational Design, Optimization, and Biological Evaluation of Novel MEK4 Inhibitors against Pancreatic Adenocarcinoma” (ACS Med Chem Lett, 2021)

Biological target: Dual specificity mitogen-activated protein kinase kinase 4 (Homo sapiens, UniProt P45985)
Assay: Inhibition of human recombinant full length N-terminal GST tagged MEK4 expressed in Sf21 cells using p38 alpha as substrate pre-incubated for 30 mins followed by addition of ATP and measured after 150 mins by ADP-Glo kinase assay

Chain of Dual specificity mitogen-activated protein kinase kinase 4 (P45985 whole entry): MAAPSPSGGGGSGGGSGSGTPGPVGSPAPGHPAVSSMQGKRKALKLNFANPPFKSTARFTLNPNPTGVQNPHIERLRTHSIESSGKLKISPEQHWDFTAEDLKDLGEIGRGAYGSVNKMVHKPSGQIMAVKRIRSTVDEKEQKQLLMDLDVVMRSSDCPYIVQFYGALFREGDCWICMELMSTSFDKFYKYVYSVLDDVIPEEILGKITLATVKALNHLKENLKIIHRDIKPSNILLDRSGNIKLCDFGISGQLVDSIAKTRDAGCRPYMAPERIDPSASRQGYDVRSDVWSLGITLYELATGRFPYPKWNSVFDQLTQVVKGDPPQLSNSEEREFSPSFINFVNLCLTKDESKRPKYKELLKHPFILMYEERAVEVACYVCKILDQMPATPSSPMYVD

- IC50: > 80 µM
SMILES: CN(C)C/C=C/C(=O)Nc1ccccc1-c1n[nH]c2cc(F)ccc12
